Results taken from US9050345B2, “Pyrrolotriazines as potassium ion channel inhibitors” (BRISTOL-MYERS SQUIBB COMPANY, priority 2013, dated 2015).

Molecular target: T1, human KV 1.5 (IKur) (Homo sapiens, UniProt P22460)
T1 construct: expressed in transfected cells
Assay: block of IKur current in patch clamped L-929 cells expressing human Kv1.5
Format: cell-based
Conditions: L929, 0.3 μM; patch clamped mammalian L-929 cells stably expressing human Kv1.5; read-out: KV1_5% Inh L929 @0.3 μM

T1 sequence (P22460 whole entry): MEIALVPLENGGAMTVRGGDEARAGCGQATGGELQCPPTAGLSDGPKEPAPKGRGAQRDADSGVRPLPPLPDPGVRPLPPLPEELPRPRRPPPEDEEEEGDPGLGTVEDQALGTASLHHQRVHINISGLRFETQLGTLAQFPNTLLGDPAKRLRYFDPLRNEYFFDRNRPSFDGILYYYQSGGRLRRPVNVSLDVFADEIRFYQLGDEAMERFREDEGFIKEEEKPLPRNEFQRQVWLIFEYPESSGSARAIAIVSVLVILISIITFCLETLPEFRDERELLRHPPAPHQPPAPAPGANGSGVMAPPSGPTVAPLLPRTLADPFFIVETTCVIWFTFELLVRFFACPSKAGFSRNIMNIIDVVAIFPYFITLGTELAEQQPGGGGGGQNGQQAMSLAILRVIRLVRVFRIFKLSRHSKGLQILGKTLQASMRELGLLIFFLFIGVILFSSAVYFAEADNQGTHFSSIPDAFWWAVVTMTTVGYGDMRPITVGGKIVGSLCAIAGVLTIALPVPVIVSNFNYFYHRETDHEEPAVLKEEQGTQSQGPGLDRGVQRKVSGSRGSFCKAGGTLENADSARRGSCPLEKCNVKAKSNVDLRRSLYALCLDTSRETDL

Row | SMILES | inhibition at 0.3 µM [%]
1 | CC(=O)Nc1ccccc1CNc1nc(-c2cncc(S(N)(=O)=O)c2)nn2ccc(-c3ccccc3)c12 [Example 180, N-(2-(((5-phenyl-2-(5-sulfamoylpyridin-3-yl)pyrrolo[2,1-f][1,2,4]triazin-4-yl)amino)methyl)phenyl)acetamide] | 36.9
2 | COC(=O)Nc1ccccc1CNc1nc(-c2cncc(S(N)(=O)=O)c2)nn2ccc(-c3ccccc3)c12 [Example 181, methyl (2-(((5-phenyl-2-(5-sulfamoylpyridin-3-yl)pyrrolo[2,1-f][1,2,4]triazin-4-yl)amino)methyl)phenyl)carbamate] | 96
3 | NS(=O)(=O)c1cncc(-c2nc(NCc3ccccn3)c3c(-c4ccccc4)ccn3n2)c1C(F)F [Example 182, 4-(difluoromethyl)-5-(5-phenyl-4-((pyridin-2-ylmethyl)amino)pyrrolo [2,1-f][1,2,4]triazin-2-yl)pyridine-3-sulfonamide] | 93.7
4 | NS(=O)(=O)c1ccc(-c2nc(NCc3ccccn3)c3c(-c4ccccc4)ccn3n2)cn1 [Example 183, 5-(5-phenyl-4-((pyridin-2-ylmethyl)amino)pyrrolo[2,1-f][1,2,4]triazin-2-yl)pyridine-2-sulfonamide] | 97.8
5 | N#Cc1ccccc1-c1ccn2nc(-c3cncc(S(N)(=O)=O)c3)nc(NCc3ccccn3)c12 [Example 184, 5-(5-(2-cyanophenyl)-4-((pyridin-2-ylmethyl)amino)pyrrolo [2,1-f][1,2,4]triazin-2-yl)pyridine-3-sulfonamide] | 80.9
